Assay in all cases: NCI 60 cell one-dose screening (SRB)
Assay type in all cases: cell-based

The subject of experiment [1] is A498. Particulars: Homo sapiens; A498, Renal Cancer; single dose 10 µM, 48 h; read-out: Percentage of cellular growth inhibition. As to the method:
(§1) The 60 cancerous cell panel screening was performed following the Developmental Therapeutics Program (DTP) of the National Cancer Institute (NIH-NCI), USA. A single dose of 10 µM was used to perform the screening at 48 h incubation and the results were achieved as cancerous cell growth percentage relative to the no-drug control that was converted to an inhibition percentage by subtracting from 100.The cancerous cell lines were grown in RPMI 1640 medium containing 5% foetal bovine serum and 2 mM L-glutamine at 37 °C, 5% CO2, 95% air and 100% relative humidity for 24 h prior to addition of the tested compounds. After 24 h, two plates of each cell line were fixed in situ with TCA to represent a measurement of the cell population for each cell line at the time of drug addition (Tz). Compounds were dissolved in DMSO at 400-fold the desired final maximum test concentration and stored frozen prior to use. At the time of drug addition, an aliquot of frozen concentrate was thawed and diluted to twice the desired final maximum test concentration with complete medium containing 50 µg/mL gentamicin. Aliquots of 100 µL of the compounds dilution was added to the appropriate micro titre wells already containing 100 µL of medium, resulting in the required final drug concentrations of 10 µM. Following compounds addition, the plates were incubated for an additional 48 h at 37 °C, 5% CO2, 95% air, and 100% relative humidity. For adherent cells, the assay was terminated by the addition of cold TCA. Cells were fixed in situ by the gentle addition of 50 µL of cold 50% (w/v) TCA (final concentration, 10% TCA) and incubated for 60 min at 4 °C. The supernatant was discarded, and the plates were washed five times with tap water and air dried. Sulphorhodamine B (SRB) solution (100 µL) at 0.4% (w/v) in 1% acetic acid is added to each well, and plates are incubated for 10 min at room temperature. After staining, unbound dye was removed by washing five times with 1% acetic acid and the plates were air dried. Bound stain was subsequently solubilised with 10 mM trizma base, and the absorbance was read on an automated plate reader at a wavelength of 515 nm. For suspension cells, the methodology was the same except that the assay was terminated by fixing settled cells at the bottom of the wells by gently adding 50 µL of 80% TCA (final concentration, 16% TCA). Using the seven absorbance measurements [time zero, (Tz), control growth, I, and test growth in the presence of drug at the five concentration levels (Ti)], the percentage growth was calculated as: [(Ti−Tz)/(C−Tz)]×100 for concentrations for which Ti>/=Tz [(Ti−Tz)/Tz]×100 for concentrations for which Ti<Tz.

Experiment [2] deals with OVCAR-5. Particulars: Homo sapiens; OVCAR-5, Ovarian Cancer; single dose 10 µM, 48 h; read-out: Percentage of cellular growth inhibition. As to the method:
as §1

In experiment [3] the test system is CCRF-CEM. Particulars: Homo sapiens, Leukemia, single dose 10 µM, 48 h, read-out: Percentage of cellular growth inhibition. On the procedure:
as §1

For experiment [4], the system named is ACHN. To be noted: Homo sapiens, Renal Cancer, single dose 10 µM, 48 h, read-out: Percentage of cellular growth inhibition. As to the method:
as §1

Experiment [5] relates to MALME-3M. Particulars: Homo sapiens, Melanoma, single dose 10 µM, 48 h, read-out: Percentage of cellular growth inhibition. On the procedure:
as §1

In experiment [6] the test system is MDA-MB-231/ATCC. Particulars: Homo sapiens, Breast Cancer, single dose 10 µM, 48 h, read-out: Percentage of cellular growth inhibition. On the procedure: as §1
For experiment [7], the system named is KM12. Particulars: Homo sapiens; KM12, Colon Cancer; single dose 10 µM, 48 h; read-out: Percentage of cellular growth inhibition. As to the method:
as §1

The test system of experiment [8] is HCT-116. Particulars: Homo sapiens; HCT-116, Colon Cancer; single dose 10 µM, 48 h; read-out: Percentage of cellular growth inhibition. On the procedure:
as §1

Experiment [9] deals with SNB-19. To be noted: Homo sapiens; SNB-19, CNS Cancer; single dose 10 µM, 48 h; read-out: Percentage of cellular growth inhibition. As to the method:
as §1

In experiment [10] the test system is HCT-15. To be noted: Homo sapiens; HCT-15, Colon Cancer; single dose 10 µM, 48 h; read-out: Percentage of cellular growth inhibition. As to the method: as §1
Experiment [11] concerns DU-145. To be noted: Homo sapiens; DU-145, Prostate Cancer; single dose 10 µM, 48 h; read-out: Percentage of cellular growth inhibition. On the procedure:
as §1

The subject of experiment [12] is SK-MEL-28. Particulars: Homo sapiens; SK-MEL-28, Melanoma; single dose 10 µM, 48 h; read-out: Percentage of cellular growth inhibition. As to the method: as §1
The test system of experiment [13] is HL-60(TB). To be noted: Homo sapiens, Leukemia, single dose 10 µM, 48 h, read-out: Percentage of cellular growth inhibition. As to the method: as §1
Experiment [14] relates to OVCAR-4. To be noted: Homo sapiens; OVCAR-4, Ovarian Cancer; single dose 10 µM, 48 h; read-out: Percentage of cellular growth inhibition. As to the method: as §1
In experiment [15] the test system is RPMI-8226. Particulars: Homo sapiens; RPMI-8226, Leukemia; single dose 10 µM, 48 h; read-out: Percentage of cellular growth inhibition. On the procedure:
as §1

The subject of experiment [16] is PC-3. To be noted: Homo sapiens; PC-3, Prostate Cancer; single dose 10 µM, 48 h; read-out: Percentage of cellular growth inhibition. As to the method:
as §1

The test system of experiment [17] is HOP-92. To be noted: Homo sapiens, HOP-92, 48 h, HOP-92, Non-Small Cell Lung Cancer, single dose 10 µM, read-out: Percentage of cellular growth inhibition. As to the method:
as §1

Experiment [18] concerns UACC-62. Particulars: Homo sapiens; UACC-62, Melanoma; single dose 10 µM, 48 h; read-out: Percentage of cellular growth inhibition. As to the method: as §1
In experiment [19] the test system is HT29. Particulars: Homo sapiens, HT-29; HT29, Colon Cancer; single dose 10 µM, 48 h; read-out: Percentage of cellular growth inhibition. On the procedure:
as §1

Experiment [20] deals with MOLT-4. To be noted: Homo sapiens; MOLT-4, Leukemia; single dose 10 µM, 48 h; read-out: Percentage of cellular growth inhibition. On the procedure: as §1
Experiment [21] concerns UO-31. To be noted: Homo sapiens; UO-31, Renal Cancer; single dose 10 µM, 48 h; read-out: Percentage of cellular growth inhibition. As to the method:
as §1

Molecules are shown by their SMILES.

With `c1ccc(-c2csc(Nc3cccc(Nc4nc(-c5ccccc5)cs4)c3)n2)cc1` [6a, N^1,N^3-bis(4-phenylthiazol-2-yl)benzene-1,3-diamine], the inhibition (usually the change of the read-out against control, counted positive when it falls) at 10 µM in experiment [1] was found to be 14.5%; in experiment [2] it was 35.5%; in experiment [3], 61.4%; in [4], 63.8%; in [5] it was 47.2%; in experiment [6] it was 52%. The inhibition at 10 µM was found to be 98.9% in experiment [7]; 60% in experiment [8]; 42% in experiment [9]; 69.5% in experiment [10]; 41.1% in experiment [11]; 39.1% in [12]. Besides, the inhibition at 10 µM in experiment [13] worked out at 34.1%; in [14], 62.4%; in [15], 50.7%; in experiment [16] it was 67.9%; in experiment [17], 56.3%; in experiment [18] it was 49.7%. In addition, the figures for the inhibition at 10 µM in experiment [19], in experiment [20] and in [21] were 60.6%, 86.3% and 67.7%, respectively.

For `Fc1ccc(-c2csc(Nc3cccc(Nc4nc(-c5ccc(F)cc5)cs4)c3)n2)cc1` [6b, N^1,N^3-bis(4–(4-fluorophenyl)thiazol-2-yl)benzene-1,3-diamine], the inhibition at 10 µM stood at 21.7% in [1]; 34.5% in [2]; 40.9% in experiment [3]; 48.2% in experiment [4]; 17% in [5]; 35.4% in [6]. For the same compound, the inhibition at 10 µM in [7] worked out at 62.4%; in experiment [8] it was 42.3%; in experiment [9] it was 29.8%; in experiment [10], 47.5%; in [11] it was 32.3%; in experiment [12], 23.6%. Also, the inhibition at 10 µM in experiment [13] stood at 25.7%; in experiment [14], 44.3%; in experiment [15], 50.5%; in [16], 64.8%; in experiment [17] it was 60.8%; in experiment [18] it was 42.9%. Further, the inhibition at 10 µM in experiment [19] is 37.7%; in [20] it was 53.6%; in [21], 68.7%.

Take `Clc1ccc(-c2csc(Nc3cccc(Nc4nc(-c5ccc(Cl)cc5)cs4)c3)n2)cc1` [6c, N^1,N^3-bis(4–(4-chlorophenyl)thiazol-2-yl)benzene-1,3-diamine]: the inhibition at 10 µM in [1] was 9.8%; in experiment [2], 9.6%; in [3], 10.4%; in experiment [4], 14.3%; in experiment [5], -22.4%; in experiment [6] it was 24.9%. Moreover, the inhibition at 10 µM in experiment [7] was -1.4%; in experiment [8], 38.5%; in experiment [9], 11.5%; in [10], 7.1%; in [11], -1.8%; in experiment [12], -4.2%. The inhibition at 10 µM in experiment [13] stood at 14.6%; in experiment [14], 8.4%; in experiment [15], 14.8%; in experiment [16] it was 22.2%; in experiment [17], 59.5%; in experiment [18], 17.4%. Further, the inhibition at 10 µM in experiment [19] is -10.5%; in [20], 25.4%; in [21], 21.6%.

For the compound `c1ccc(/N=c2\scc(-c3ccccc3)n2-c2cccc(-n3c(-c4ccccc4)cs/c3=N\c3ccccc3)c2)cc1` [8a, N,N’-(3,3’-(1,3-phenylene)bis(4-phenylthiazole-3(3H)-yl-2(3H)-ylidene))dianiline], the inhibition at 10 µM was -18.1% in experiment [1]; -2.9% in experiment [2]; -0.9% in experiment [3]; 3% in experiment [4]; 3% in experiment [5]; -4.1% in experiment [6]. For the same compound, the inhibition at 10 µM in [7] is 1.1%; in experiment [8] it was -4.1%; in experiment [9] it was -5.9%; in experiment [10] it was -4.7%; in experiment [11], -3.2%; in [12], -3.6%. The inhibition at 10 µM was -4.4% in experiment [13]; 5.3% in experiment [14]; -0.5% in experiment [15]; 21.8% in experiment [16]; 14.5% in experiment [17]; 20.3% in [18]. For the same compound, the inhibition at 10 µM in [19] was -3.1%; in experiment [20] it was -5.5%; in experiment [21], 25.4%.

Turning to `Fc1ccc(-c2cs/c(=N\c3ccccc3)n2-c2cccc(-n3c(-c4ccc(F)cc4)cs/c3=N\c3ccccc3)c2)cc1` [8b, N,N’-(3,3’-(1,3-phenylene)bis(4–(4-fluorophenyl)thiazole-3(3H)-yl-2(3H)-ylidene))dianiline], the inhibition at 10 µM in experiment [1] is -6.4%; in [2], 14%; in experiment [3], 35.2%; in experiment [4], 2.3%; in experiment [5], 7.5%; in [6], 8.9%. Further, the inhibition at 10 µM in [7] was found to be 12.8%; in experiment [8], 16.7%; in [9] it was 5.6%; in [10], 21.7%; in [11], 17.1%; in [12], 1.7%. In addition, the inhibition at 10 µM was 15.8% in experiment [13]; 34.7% in experiment [14]; 24.2% in [15]; 32.1% in [16]; 22% in experiment [17]; 41% in experiment [18]. The inhibition at 10 µM in experiment [19] was found to be 9.9%; in [20], 50.1%; in experiment [21], 26.3%.
